Assay type in all cases: in vivo
The subject of one assay is Abutilon theophrasti. As to the kind of experiment: Post-emergence test/greenhouse, % damage after three weeks. An excerpt: (§1) The expected action for a given combination of two herbicides can be calculated as follows (cf. COLBY, S. R.: “Calculating synergistic and antagonistic responses of herbicide combinations”, Weeds 15, pages 20-22, 1967):
(§2) If • X=% damage by herbicide A (active compound of the formula I) at an application rate of p kg/ha and • Y=% damage by herbicide B (active compound of the formula II) at an application rate of q kg/ha and • E=the expected damage of herbicides A+B at an application rate of p+q kg/ha, then
(§3) If the actual damage exceeds the calculated value, the combination has a superadditive effect, that is to say a synergistic effect.
(§4) Test plants are grown under control conditions (temperature and light). Once the plants have reached a height of 5 to 15 cm, the test compound or the combination of test compounds is applied by spraying such that the particular amounts of active compound desired are applied per unit area. The concentration of the spray liquor is chosen so that the particular amounts of active compound desired are applied in 500 litres of water/ha.
(§5) Following the spray application, the plant containers are kept in the greenhouse under constant light and temperature conditions.
(§6) After three weeks, the degree of damage to the plants is rated in % damage in comparison to the development of the untreated control.
(§7) The figures denote: • 0%=no effect (like untreated control) • 100%=total destruction

In a further assay the test system is Avena fatua. The description is as above.
Excerpt: as §1, §2, §3, §4, §5, §6, §7

In a further assay the test system is Cassia tora. Described as above. As for the experimental part: as §1, §3
(§8) Test plants are grown under control conditions (temperature and light).
as §5, §6

For a further assay, the system named is Xanthium strumarium. The description is as above.
Excerpt: as §1, §2, §3, §4, §5, §6, §7

In a further assay the test system is Bromus secalinus. Described as above. As for the experimental part:
as §1, §3, §8, §5, §6

In a further assay the test system is Chenopodium album. The assay is described as above.
Excerpt: as §1, §2, §3, §4, §5, §6, §7

A further assay deals with test plants. As to the kind of experiment: Post-emergence test/greenhouse, % damage after three weeks (further test plants, Tables A-1-30 to A-1-104).
Excerpt: as §1, §2, §3, §4, §5, §6, §7

Another assay concerns Digitaria sanguinalis. As to the kind of experiment: Post-emergence test/greenhouse, % damage after three weeks.
Excerpt: as §1, §2, §3, §4, §5, §6, §7

A further assay has as its system Polygonum convolvolus. The description is as above.
Another assay deals with Matricaria inodora. The assay is described as above.
Excerpt: as §1, §2, §3, §4, §5, §6, §7

In a further assay the test system is Galium aparine. The assay is described as above.
A further assay deals with Ipomoea hederacea. The assay is described as above.
Excerpt: as §1, §2, §3, §4, §5, §6, §7

Another assay has as its system Veronica persicaria. Described as above. As for the experimental part:
as §1, §3, §8, §5, §6

The test system of a further assay is Setaria viridis. Described as above. Conditions: 15 g of ai/ha.
Excerpt: as §1, §2, §3, §4, §5, §6, §7

The next assay deals with Eriochloa villosa. Described as above.
The subject of the next assay is Lolium perenne. The assay is described as above.
The subject of the next assay is Viola arvensis. The assay is described as above. Conditions: 15 g of ai/ha.
Excerpt: as §1, §2, §3, §4, §5, §6, §7

A further assay relates to Alopecurus myosuroides. The assay is described as above.
Excerpt: as §1, §2, §3, §4, §5, §6, §7

In the next assay the test system is Cyperus esculentus. Described as above. The note with it: 8 g of ai/ha.
Excerpt: as §1, §2, §3, §4, §5, §6, §7

Setting [1] is: application rate 125 g of ai/ha.

On to `CCS(=O)(=O)c1cccnc1S(=O)(=O)NC(=O)Nc1nc(OC)cc(OC)n1` [rimsulfuron], for which the Abutilon theophrasti observed in the assay on Abutilon theophrasti (4 g of ai/ha) is reported as 70%. For the same compound, the Avena fatua observed with Avena fatua (4 g of ai/ha) and in the assay on Avena fatua (8 g of ai/ha) was 70% each time. The Cassia tora observed with Cassia tora (4 g of ai/ha) is listed as 60%; with Cassia tora (8 g of ai/ha), 80%.
`COC(=O)c1cc(Oc2ccc(Cl)cc2Cl)ccc1[N+](=O)[O-]` [bifenox, methyl 5-(2,4-dichlorophenoxy)-2-nitrobenzoate, reference compound]: the Avena fatua observed in the assay on Avena fatua (60 g of ai/ha), in the assay with Avena fatua (125 g of ai/ha) and with Avena fatua (250 g of ai/ha) was 10% throughout. The Xanthium strumarium observed in the assay with Xanthium strumarium (60 g of ai/ha) turned out to be 60%; in the assay on Xanthium strumarium (125 g of ai/ha), 60%; with Xanthium strumarium (250 g of ai/ha) it was 70%. The pest or weed control at 60 g/ha with Bromus secalinus (Bromus secalinus, post-emergence, 504 h, 60 g of ai/ha, read-out: Bromus secalinus observed) came to 0%. Also, in the assay with Bromus secalinus (Bromus secalinus, post-emergence, 504 h, 125 g of ai/ha, read-out: Bromus secalinus observed), the pest or weed control at 125 g/ha is 0%. The pest or weed control at 250 g/ha in the assay with Bromus secalinus (Bromus secalinus, post-emergence, 504 h, 250 g of ai/ha, read-out: Bromus secalinus observed) was 10%.
Take flufenacet: the Chenopodium album observed in the assay with Chenopodium album (application rate 30 g of ai/ha), in the assay on Chenopodium album (application rate 60 g of ai/ha) and with Chenopodium album (setting [1]) was 0% each time. Moreover, the Bromus secalinus observed with Bromus secalinus (application rate 30 g of ai/ha) was 0%; with Bromus secalinus (application rate 60 g of ai/ha), 20%; in the assay with Bromus secalinus (setting [1]), 40%. Besides, the Polygonum convolvolus observed in the assay on test plants (application rate 30 g of ai/ha), in the assay on test plants (application rate 60 g of ai/ha) and in the assay with test plants (setting [1]) was 0% throughout.
Take `COC(=O)c1ccc(C(F)(F)F)nc1S(=O)(=O)NC(=O)Nc1nc(OC)cc(OC)n1.[Na]` [flupyrsulfuron, N-(4,6-dimethoxypyrimidin-2-yl)-N′-(3-methoxycarbonyl-6-trifluoromethylpyridin-2-ylsulphonyl)urea sodium salt, reference compound]: the Digitaria sanguinalis observed with Digitaria sanguinalis (4 g of ai/ha) was 20%. Further, the pest or weed control at 2 g/ha with Bromus secalinus (Bromus secalinus, post-emergence, 504 h, 2 g of ai/ha, read-out: Bromus secalinus observed) came out at 0%. Moreover, in the assay with Bromus secalinus (Bromus secalinus, post-emergence, 504 h, 4 g of ai/ha, read-out: Bromus secalinus observed), the pest or weed control at 4 g/ha came to 0%. The Polygonum convolvolus observed turned out to be 70% with Polygonum convolvolus (2 g of ai/ha) and 80% in the assay on Polygonum convolvolus (4 g of ai/ha).
For the compound `Cc1cc(Cl)ccc1O[C@@H](C)C(=O)O` [mecoprop-P], the Digitaria sanguinalis observed was determined as 40% in the assay with Digitaria sanguinalis (125 g of ai/ha) and 70% with Digitaria sanguinalis (250 g of ai/ha). Moreover, the Matricaria inodora observed in the assay with Matricaria inodora (125 g of ai/ha) and in the assay on Matricaria inodora (250 g of ai/ha) was 0% in each case. In addition, the Galium aparine observed with Galium aparine (125 g of ai/ha) amounted to 20%; with Galium aparine (250 g of ai/ha), 40%.
Regarding `CCOC(=O)[C@@H](C)Oc1ccc(Oc2nc3ccc(Cl)cc3o2)cc1` [fenoxaprop-(P)-ethyl, reference compound], the Ipomoea hederacea observed with Ipomoea hederacea (30 g of ai/ha) was 0%. Besides, the Bromus secalinus observed in the assay with Bromus secalinus (8 g of ai/ha), in the assay with Bromus secalinus (15 g of ai/ha) and in the assay with Bromus secalinus (30 g of ai/ha) was 0% in each case. For the same compound, the Veronica persicaria observed with Veronica persicaria (8 g of ai/ha), in the assay with Veronica persicaria (15 g of ai/ha) and with Veronica persicaria (30 g of ai/ha) was 0% each time.
thifensulfuron-methyl: the Setaria viridis observed with Setaria viridis is 0%. For the same compound, the Bromus secalinus observed in the assay with Bromus secalinus (8 g of ai/ha) and in the assay on Bromus secalinus (15 g of ai/ha) was 0% each time. The same compound gave an Eriochloa villosa observed with Eriochloa villosa (15 g of ai/ha) of 10%.
Consider `O=C(Nc1ccc(F)cc1)c1cccc(Oc2cccc(C(F)(F)F)c2)n1` [picolinafen], for which the Cassia tora observed in the assay on Cassia tora (30 g of ai/ha) came to 70%. Further, the Eriochloa villosa observed in the assay with Eriochloa villosa (15 g of ai/ha) was determined as 30%; in the assay with Eriochloa villosa (30 g of ai/ha) it was 80%. Further, the Lolium perenne observed was determined as 0% with Lolium perenne (15 g of ai/ha) and 20% in the assay on Lolium perenne (30 g of ai/ha).
With `COc1cc(OC)n2nc(S(=O)(=O)Nc3c(Cl)ccc(C)c3Cl)nc2n1` [metosulam, N-(2,6-dichloro-3-methylphenyl)-5,7-dimethoxy-1,2,4-tri-azolo[1,5-a]-pyrimidine-2-sulphonamide, reference compound], the results for the “Activity against Abutilon theophrasti (%)” value with Abutilon theophrasti (12.5 g of a.i./ha) and in the assay on Abutilon theophrasti (25 g of a.i./ha) were 60% and 70%, respectively. In addition, in the assay with Avena fatua (8 g of ai/ha), the Avena fatua observed is listed as 0%. The Digitaria sanguinalis observed with Digitaria sanguinalis (8 g of ai/ha) came to 30%. For the same compound, the entries for the “Activity against Xanthium strumarum (%)” value in the assay with Xanthium strumarium (12.5 g of a.i./ha) and in the assay on Xanthium strumarium (25 g of a.i./ha) were 60% and 90%, respectively. Besides, the Veronica persicaria observed in the assay on Veronica persicaria (4 g of ai/ha) was 80%.
For the compound `COc1cc(OC)nc(NC(=O)NS(=O)(=O)c2ncccc2C(=O)N(C)C)n1` [nicosulfuron], the Eriochloa villosa observed with Eriochloa villosa (30 g of ai/ha) amounted to 90%.
For the compound `COc1nn(C(=O)NS(=O)(=O)c2ccccc2OC(F)(F)F)c(=O)n1C.[Na]` [flucarbazone-sodium, 4,5-dihydro-3-methoxy-4-methyl-5-oxo-N-[(2-trifluoromethoxyphenyl)-sulphonyl]-1-H-1,2,4-triazole-1-carboxamide sodium salt, reference compound], the Viola arvensis observed in the assay on Viola arvensis came out at 30%. In addition, in the assay with Bromus secalinus (60 g of ai/ha), the Bromus secalinus observed was 70%. Further, the Veronica persicaria observed in the assay with Veronica persicaria (30 g of ai/ha) turned out to be 20%; in the assay with Veronica persicaria (60 g of ai/ha) it was 60%.
For `CCCOc1nn(C(=O)[N-]S(=O)(=O)c2ccccc2C(=O)OC)c(=O)n1C.[Na+]` [propoxycarbazone-sodium], the Cassia tora observed in the assay with Cassia tora (30 g of ai/ha) is 30%. Besides, in the assay on Veronica persicaria (60 g of ai/ha), the Veronica persicaria observed was 40%. Moreover, the Polygonum convolvolus observed in the assay with Polygonum convolvolus (30 g of ai/ha) and in the assay on Polygonum convolvolus (60 g of ai/ha) was 0% in each case.
Take `CS(=O)(=O)c1ccc(C(=O)C2C(=O)CCCC2=O)c([N+](=O)[O-])c1` [mesotrione]: the Alopecurus myosuroides observed in the assay with Alopecurus myosuroides (15 g of ai/ha) and with Alopecurus myosuroides (30 g of ai/ha) was 0% throughout. Moreover, in the assay with Bromus secalinus (Bromus secalinus, post-emergence, 504 h, 15 g of ai/ha, read-out: Bromus secalinus observed), the pest or weed control at 15 g/ha amounted to 0%. Besides, the pest or weed control at 30 g/ha in the assay on Bromus secalinus (Bromus secalinus, post-emergence, 504 h, 30 g of ai/ha, read-out: Bromus secalinus observed) came to 0%. In the assay with Polygonum convolvolus (15 g of ai/ha), this compound yielded a Polygonum convolvolus observed of 50%.
On to glyphosate, for which the Bromus secalinus observed in the assay on Bromus secalinus (125 g of ai/ha) is 20%; in the assay with Bromus secalinus (250 g of ai/ha) it was 80%. Besides, the Veronica persicaria observed in the assay with Veronica persicaria (250 g of ai/ha) worked out at 50%. In addition, in the assay on Eriochloa villosa (250 g of ai/ha), the Eriochloa villosa observed came out at 70%.
Turning to `COc1ncc(F)c2nc(S(=O)(=O)Nc3c(F)cccc3F)nn12` [florasulam], the Bromus secalinus observed in the assay with Bromus secalinus (2 g of ai/ha) and with Bromus secalinus (4 g of ai/ha) was 30% in each case. Besides, the Cassia tora observed in the assay with Cassia tora (4 g of ai/ha) came to 0%. Also, the Veronica persicaria observed in the assay with Veronica persicaria (4 g of ai/ha) was 70%.
For the compound `COc1cc(OC)nc(NC(=O)NS(=O)(=O)c2cc(NC=O)ccc2C(=O)N(C)C)n1` [foramsulfuron], in the assay with Cyperus esculentus, the Cyperus esculentus observed was 80%. Moreover, the Ipomoea hederacea observed in the assay with Ipomoea hederacea (15 g of ai/ha) was 80%. Besides, in the assay on Eriochloa villosa (15 g of ai/ha), the Eriochloa villosa observed is 60%.
Take `CSc1nnc(C(C)(C)C)c(=O)n1N` [metribuzin]: in the assay on Matricaria inodora (30 g of ai/ha), the Matricaria inodora observed is on record as 0%. Moreover, in the assay on Xanthium strumarium (30 g of ai/ha), the Xanthium strumarium observed is on record as 40%.
